Assay results: US8895032B2, “Dendritic nano-antioxidants” (Central Michigan University, priority 2009, dated 2014)

System: pBR 322 DNA with Cu2+
Experiment: Pro-oxidant effect: oxidation of DNA with copper (II) ion
Conditions: 10 μM Cu2+, 37° C., 1 h
Experimental: The pro-oxidant effect of compounds 1, 2, and 3 was examined by oxidation of DNA with copper (II) ion. pBR 322 was incubated with 10 μM Cu^2+ at 37° C. for 1 h in the presence of compound 1, 2, or 3 (final concentrations between 0.35 and 45 μM). […] Lane 1 is native DNA, and lanes 2-10 are Cu^2+-oxidized DNA with 0, 45, 23, 11, 5, 3, 1.5, 0.7, and 0.35 μM antioxidant, respectively.
This was performed by co-incubation of DNA (pBR 322), copper (II) ion and antioxidant. […] This ultimately forms DNA-Cu(I)OOH, initiating a free radical cascade by which DNA damage occurs. pBR 322 was incubated with 10 μM Cu^2+ in the presence of antioxidants (0-45 μM) at 37° C. for 1 h and subjected to agarose electrophoresis. […] In FIG. 32, lane 1 is native DNA, and lanes 2-10 are Cu^2+ oxidized DNA with 0, 45, 23, 11, 5, 3, 1.5, 0.7, and 0.35 μM antioxidant, respectively. […] However, it should be noted that physiological concentrations of copper are less than 10-20 μM in plasma and approximately […] for the cation in cells.

In the case of Cc1c(C)c2c(c(C)c1O)CCC(C)(C(=O)O)O2 (centres unmarked) [Trolox, 6-hydroxy-2,5,7,8-tetramethylchroman-2-carboxylic acid], the “pro-oxidant effect on DNA at the concentrations tested” value (0.35-45 μM antioxidant) is reported as “strong pro-oxidant effect equivalent to quercetin” and the “pro-oxidant DNA damage” value (11-45 μM antioxidant) is reported as “DNA damage was clearly observed”.
